Source: patent US10689459B2, “Treatment of breast cancer brain metastases” (THE GENERAL HOSPITAL CORPORATION, priority 2014, dated 2020)
Blank lines part the entries; values can stand above or below the molecule they belong to.

What was measured:
BT474-Gluc-BR cells = assay: In vitro sensitivity of cancer cells isolated from a brain metastatic tumor; format: cell-based, human; details: BT474-Gluc-BR cultured for a week in vitro
Description: We began our investigation into the resistance of breast cancer BM to PI3K inhibition by asking if breast cancer cells require constant influence from the brain microenvironment. We isolated breast cancer cells after dissociation of a brain metastatic tumor (termed BT474-Gluc-BR). After cultured for a week in vitro, the vast majority of viable cells were cancer cells, as identified by GFP. […] Instead, breast cancer cells must receive continuous support from the brain microenvironment in order to maintain resistance. […]
The xCELLigence system (Acea Biosciences Inc.) was used to assess the cell index of T-47D, BT474 and MDA-MB-361 cells. xCELLigence measures electrical impedance across micro-electrodes integrated at the bottom of tissue culture E-plates to provide quantitative information about the biological status of cells, including cell number, morphology and viability. […] Cells were monitored every 15 m for a period of up to 24 h via the incorporated sensor electrode arrays of the E-Plate 96. […] Electric impedance was measured in 1 h intervals after addition of drug until the end of the experiment. Cell index value, which is a dimensionless parameter derived as a relative change in measured electrical impedance to represent numbers of attached cells, was calculated from the electric impedance and plotted using the RTCA software provided by the vendor. […]

[1] = test system: HER2- or PI3K-driven breast tumors growing in the MFP (BT474, MDA-MB-361, T-47D); assay: Mammary fat pad (MFP) xenograft tumor growth; format: in vivo, nude mice; details: COMPOUND A 30 or 50 mg/kg once a day p.o.; FIG. 1A
Description: (§1) 5-(2,6-di-morpholin-4-yl-pyrimidin-4-yl)-4-trifluoromethyl-pyridin-2-ylamine (referred to herein as “COMPOUND A”) is a potent and specific pan-Class I PI3K inhibitor with activity against breast cancer cells bearing HER2-amplification as well as oncogenic PI3K catalytic subunit alpha (PIK3CA) mutations. We compared the efficacy of COMPOUND A on identical human HER2-positive breast cancer cells growing in the MFP or in the brain parenchyma of nude mice. The three breast cancer cell lines examined included HER2-amplified BT474, HER2-amplified and PIK3CA mutant (E545K) MDA-MB-361, and PIK3CA mutant (H1047R) T-47D cell lines. […] Furthermore, the concentration of COMPOUND A in breast tumors growing at both sites, as well as in the plasma of these mice was identical.
(§2) BT474, MDA-MB-361, and T-47D cells were transduced with an expression cassette encoding Gluc and GFP separated by an internal ribosomal entry site, using a lentiviral vector. GFP-positive cells were sorted with a FACSAria cell sorter (BD Biosciences). […]
(§3) Tumor size was measured twice a week by measuring the activity of secreted Gluc in the blood. […] Blood was transferred to an opaque 96-well plate, and Gluc activity was measured using coelenterazine (CTZ; Nanolight) as a substrate and a plate luminometer (Centro XS LB960; Berthold Technologies). […]

[2] = Compound A concentration measurement in tumor and plasma (LC-MS/MS); format: in vivo, nude mice; details: tumor lysate by LC-MS/MS; comparison between sites
Description: Tumor samples were collected, weighed and lysed in Lysing Matrix D tube (MP Biomedicals) in RIPA buffer (Cell Signaling Technologies (CST)) at fixed weight/volume ratio. The samples were centrifuged at 13,000 rpm and 4° C. in Micro centrifuge for 10 min. Supernatant was collected from the lysate and stored at −80° C. The COMPOUND A concentration in tumor lysate was analyzed by LC-MS/MS at Inventiv Health Clinical Lab, Inc. It was then normalized by tumor weight-lysis buffer ratio to yield COMPOUND A exposure (ng/mL) in tumor tissue.

[3] = test system: human breast cancer cells growing in the brain parenchyma (BT474, MDA-MB-361, T-47D); assay: Brain metastatic xenograft tumor growth (three cell lines, Example 1); format: in vivo, nude mice; details: COMPOUND A 30 or 50 mg/kg once a day p.o.; FIG. 1B
Description: as §1, §2, §3

p-AKT = p-AKT inhibition in tumor tissue (BM versus MFP tumors); format: in vivo, nude mice; details: tumor tissue collected two hours after the final dose
Description: as §1

[4] = test system: three HER2-positive breast cancer cell lines; assay: Resistance analysis of secreted growth factors (CellTiter-Glo rescue); format: cell-based, human; details: unbiased analysis of 220 growth factors; 96 h incubation
Description: A collection of cDNA constructs representing secreted and single pass transmembrane proteins was identified (as described previously described^56) and purchased from Invitrogen Ultimate ORF collection. (The library is maintained by DMP BioArchive.) pCDNA-DEST40 (Invitrogen) was the plasmid vector for all clones, and all clone inserts were confirmed by full sequencing. For this study a collection of 338 cDNA constructs, representing 220 unique secreted and single pass transmembrane proteins, was used to identify rescued ligands in the present of each compound treatment—each cDNA construct was reverse-transfected using HEK293T/17. […] CellTiter-Glo assay was then used for conducting end-point read out. Following plate to plate normalization of the raw CTG reading for triplicates, the rescue % value for each secreted protein was calculated using the following formula: Rescue %=[Median (drug+supe)−Median (drug)]/[Median (DMSO)−Median (drug)]. The statistical probability score of the Rescue % value was also calculated: p-value=Chidist [Z(drug+supe)^2, 1], where Z(drug+supe)=[Median (drug+supe)−Median (drug)]/Std(drug+supe), where drug+supe stands for the individual sample that were treated with individual supernatant that was expected to contain one unique secreted protein. […]

- concentration in breast tumors growing at both sites (MFP, brain) and in plasma [2]: identical
Molecule: Nc1cc(C(F)(F)F)c(-c2cc(N3CCOCC3)nc(N3CCOCC3)n2)cn1 [COMPOUND A, 5-(2,6-di-morpholin-4-yl-pyrimidin-4-yl)-4-trifluoromethyl-pyridin-2-ylamine]
- in vitro sensitivity of brain microenvironment-exposed cells versus parental cells (BT474-Gluc-BR cells): similarly sensitive
- tumor response to treatment, tumors growing in the MFP [1]: regression
- tumor response to treatment, established brain metastatic lesions [3]: resistant to treatment
- level of p-AKT inhibition in BM compared with MFP tumors (p-AKT): comparable level of p-AKT inhibition

B1: NRG-1: neuregulin 1, HER3 ligand; secreted growth factor (protein)
chain: TSHLVKCAEKEKTFCVNGGECFMVKDLSNPSRYLCKCPNEFTGDRCQNYVMASFYKHLGIEFMEAEELYQK
- induction of resistance to COMPOUND A [4]: most potent inducers of resistance
